Test results published in US7994318B2, “Coumarin derivatives useful as TNFα inhibitors” (Chugai Seiyaku Kabushiki Kaisha, priority 2000, dated 2011).
Read-outs that look alike come from different tables or passages of the source.

System: TNFα
Assay: In vitro assay: TNFα ELISA of supernatants of LPS-stimulated human PBMC
Assay type: cell-based
Conditions: human PBMC pretreated with drug 60 min, stimulated with LPS (E. coli O55:B5) 100 ng/mL, overnight culture, TNFα in supernatant by ELISA, read-out: 50% Inhibition of TNFα level (IC50)
Protocol: Enzyme-linked immunosorbent assays (ELISA) for TNFα can be performed in a conventional manner (Blood, 75, 40-47 (1990)). Human PBMC are isolated from heparinized venous blood obtained from healthy volunteers by Ficoll-Hypaque density centrifugation. The cells are cultured in RPMI1640 medium supplemented with 5% heat-inactivated fetal calf serum and antibiotics. PBMC (5×10E5 cells/mL) in 0.2 mL aliquot are pretreated with drugs in DMSO for 60 min at 37° C. in 96 well round-bottomed tissue culture plates. Thereafter, PBMC in the presence or absence of compound are stimulated with 1 mg/mL LPS from E. coli O55:B5 at a final concentration of 100 ng/mL. After overnight culture, the supernatants are harvested and assayed immediately for TNFα levels from each well. The concentration of TNFα in the supernatant is determined by human TNFα ELISA Kit according to the manufacture's directions.
Active compounds are characterized by the concentration of the compound that caused 50% inhibition of TNFα level (IC50).

Compound | IC50 [µM] | IC50 (Homo sapiens, PBMC) [µM]
Cc1c(Cc2ccccc2)c(=O)oc2cc(C=O)ccc12 [Example 26-1] | 6.3 | 
Cc1c(Cc2ccccc2)c(=O)oc2cc(Oc3nccs3)ccc12 [Example 21, 2-oxo-3-benzyl-4-methyl-7-(thiazol-2-yloxyl)-2H-1-benzopyrane] | 10.5 | 9.1
CCCc1c(Cc2ccc(F)cc2)c(=O)oc2cc(OC(=O)N(C)C)ccc12 [Example 7, dimethyl carbamic acid 2-oxo-2H-3-(4-fluorobenzyl)-4-n-propyl-1-benzopyran-7-yl ester] |  | 1.17
CCc1c(Cc2cccc(NC(C)=O)c2)c(=O)oc2cc(Oc3ncccn3)cc(F)c12 [Example 20-60] | 4.4 | 
CCc1c(Cc2cccc(N)c2)c(=O)oc2cc(Oc3ncccn3)cc(F)c12 [Example 20-59] | 5.9 | 
Cc1c(Cc2ccccc2)c(=O)oc2cc(OC(=O)N(C)C)c(I)cc12 [Example 14-12] | 0.06 | 
COC(=O)c1cccc(Cc2c(C)c3ccc(OC(=O)N(C)C)cc3oc2=O)c1 [Example 14-67] | 1.7 | 
Cc1c(Cc2cccc([N+](=O)[O-])c2)c(=O)oc2cc(Oc3nccs3)ccc12 [Example 22-2] | 6.6 | 
CCc1c(Cc2cccc([N+](=O)[O-])c2)c(=O)oc2cc(OC(=O)N(C)C)ccc12 [Example 14-77] | 0.9 | 
CCc1c(Cc2cccc([N+](=O)[O-])c2)c(=O)oc2cc(Oc3ncccn3)c(Cl)cc12 [Example 20-55] | 6.4 | 
CCc1c(Cc2cccc(NC(C)=O)c2)c(=O)oc2cc(OC(=O)N(C)C)ccc12 [Example 14-79] | 1.6 | 
Cc1c(Cc2ccccc2)c(=O)oc2cc(C(F)C#N)ccc12 (stereo not drawn) [Example 26-24] | 1.7 | 
Cc1c(Cc2cccc(N(C)C)c2)c(=O)oc2cc(Oc3ncccn3)c(Cl)cc12 [Example 20-27] | 5.1 | 
CCc1c(Cc2cccc([N+](=O)[O-])c2)c(=O)oc2cc(Oc3nccs3)ccc12 [Example 22-11] | 3.2 | 
Cc1c(Cc2ccccc2)c(=O)oc2c(C=O)c(OC(=O)N(C)C)ccc12 [Example 6, dimethyl carbamic acid 2-oxo-2H-3-benzyl-4-methyl-8-formyl-1-benzopyran-7-yl ester] |  | 12.9
Cc1c(Cc2ccccc2N)c(=O)oc2cc(OC(=O)N(C)C)c(Cl)cc12 [Example 14-20] | 0.49 | 
CCc1c(Cc2cccc(NC(C)=O)c2)c(=O)oc2cc(Oc3ncccn3)c(Cl)cc12 [Example 20-57] | 3.6 | 
CCc1c(Cc2cccc(N)c2)c(=O)oc2cc(Oc3nccs3)ccc12 [Example 22-7] | 4.2 | 
Cc1c(Cc2cccc(N)c2)c(=O)oc2cc(OC(=O)N(C)C)c(Cl)cc12 [Example 14-24] | 0.46 | 
Cc1c(Cc2ccccc2)c(=O)oc2cc(OC(=O)N(C)C)c(C#N)cc12 [Example 9, dimethyl carbamic acid 2-oxo-2H-3-benzyl-4-methyl-6-cyano-1-benzopyran-7-yl ester] |  | 0.85

Compound | IC50 [µM] | IC50 (Homo sapiens, PBMC) [µM]
Cc1c(Cc2cccc([N+](=O)[O-])c2)c(=O)oc2cc(OC(=O)N(C)C)c(Cl)cc12 [Example 14-23] | < 0.6 | 
Cc1c(Cc2cccc(NS(C)(=O)=O)c2)c(=O)oc2cc(Oc3ncccn3)c(Cl)cc12 [Example 20-41] | < 0.6 | 
CC(=O)Nc1cccc(Cc2c(C)c3ccc(Oc4ncccn4)cc3oc2=O)c1 [Example 20-20] | 6.6 | 
Cc1c(Cc2ccccc2[N+](=O)[O-])c(=O)oc2cc(OC(=O)N(C)C)c(Cl)cc12 [Example 14-21] | 3 | 
Cc1c(Cc2ccncc2)c(=O)oc2cc(Oc3ncccn3)c(Cl)cc12 [Example 20-13] | 7.5 | 
CC(=O)Nc1cccc(Cc2c(C)c3cc(Cl)c(Oc4ncccn4)cc3oc2=O)c1 [Example 20-43] | 3.1 | 
CCc1c(Cc2ccccc2)c(=O)oc2cc(Oc3ncccn3)ccc12 [Example 20-49] | 10.9 | 
COc1cccc(Cc2c(C)c3ccc(OC(=O)N(C)C)cc3oc2=O)c1 [Example 14-45] | 3.2 | 
CC(=O)Nc1ccc(Cc2c(C)c3ccc(OC(=O)N(C)C)cc3oc2=O)cc1 [Example 14-61] | 5.8 | 
Cc1c(Cc2cccc([N+](=O)[O-])c2)c(=O)oc2cc(OC(=O)N(C)C)cc(F)c12 [Example 14-5] | 3.7 | 
CCc1c(Cc2ccncc2)c(=O)oc2cc(OC(=O)N(C)C)c(Cl)cc12 [Example 14-81] | 0.34 | 
CCOC(=O)CC(=O)Nc1cccc(Cc2c(CC)c3ccc(Oc4nccs4)cc3oc2=O)c1 [Example 22-9] | 0.27 | 
CCOC(=O)CC(=O)Nc1cccc(Cc2c(CC)c3c(F)cc(Oc4ncccn4)cc3oc2=O)c1 [Example 20-61] | 0.65 | 
Cc1c(Cc2ccccc2)c(=O)oc2cc(Cn3ccnc3N)c(Cl)cc12 [Example 26-16] | 8.6 | 
CN(C)C(=O)Oc1ccc2c(-c3cccnc3)c(Cc3ccccc3)c(=O)oc2c1 [Example 8, dimethyl carbamic acid 2-oxo-2H-3-benzyl-4-(m-pyridyl)-1-benzopyran-7-yl ester] |  | 18.7
Cc1c(Cc2ccccn2)c(=O)oc2cc(OC(=O)N(C)C)ccc12 [Example 14-30] | 6.47 | 
Cc1c(Cc2cccc(N)c2)c(=O)oc2cc(Oc3ncccn3)c(Cl)cc12 [Example 20-26] | 9.8 | 
Cc1c(Cc2ccccc2)c(=O)oc2cc(Oc3ncccn3)ccc12 [Example 15, 2-oxo-2H-3-benzyl-4-methyl-7-(pyrimidin-2-yloxyl)-1-benzopyrane] |  | 9.4
CCCc1c(Cc2ccccc2)c(=O)oc2cc(OC(=O)N(C)C)c(Cl)cc12 [Example 14-83] | 0.78 | 
CCc1c(Cc2ccccc2)c(=O)oc2cc(Oc3ncccn3)c(Cl)cc12 [Example 20-50] | 4.5 | 

Compound | IC50 [µM] | IC50 (Homo sapiens, PBMC) [µM]
Cc1cc2c(C)c(Cc3ccccc3)c(=O)oc2cc1OC(=O)N(C)C [Example 14-14] | 0.4 | 
CCOC(=O)CNC(=O)Nc1cccc(Cc2c(C)c3ccc(OC(=O)N(C)C)cc3oc2=O)c1 [Example 14-71] | 2.4 | 
Cc1c(Cc2cccc([N+](=O)[O-])c2)c(=O)oc2cc(OC(=O)N(C)C)ccc12 [Example 14-56] | 4.5 | 
CC(=O)Nc1cccc(Cc2c(C)c3c(Cl)cc(Oc4ncccn4)cc3oc2=O)c1 [Example 20-37] | 11.8 | 
CCCCS(=O)(=O)Nc1cccc(Cc2c(C)c3cc(Cl)c(Oc4ncccn4)cc3oc2=O)c1 [Example 20-48] | 1.8 | 
Cc1c(Cc2cccc(N)c2)c(=O)oc2cc(Oc3nccs3)ccc12 [Example 22-4] | 6 | 
Cc1c(Cc2cccc(NC(=O)CC(=O)O)c2)c(=O)oc2cc(Oc3ncccn3)c(Cl)cc12 [Example 20-34] | 10.6 | 
Cc1c(Cc2cccc(NC(=O)CCNC(=O)OCc3ccccc3)c2)c(=O)oc2cc(Oc3ncccn3)c(Cl)cc12 [Example 20-32] | 11.4 | 
CC(=O)NCC(=O)Nc1cccc(Cc2c(C)c3cc(Cl)c(Oc4ncccn4)cc3oc2=O)c1 [Example 20-30] | 5.8 | 
C=Cc1ccc2c(C)c(Cc3ccccc3)c(=O)oc2c1 [Example 23, 2-oxo-3-benzyl-4-methyl-7-vinyl-2H-1-benzopyrane] |  | 10.3
Cc1c(Cc2cccc([N+](=O)[O-])c2)c(=O)oc2cc(Oc3nccs3)cc(F)c12 [Example 22-3] | 10.1 | 
Cc1c(Cc2cccc(NS(=O)(=O)C(C)C)c2)c(=O)oc2cc(Oc3ncccn3)c(Cl)cc12 [Example 20-47] | 0.31 | 
CCOC(=O)CC(=O)Nc1cccc(Cc2c(C)c3c(F)cc(OC(=O)N(C)C)cc3oc2=O)c1 [Example 14-8] | 0.14 | 
Cc1c(Cc2cccc(N)c2)c(=O)oc2cc(OC(=O)N(C)C)ccc12 [Example 14-65] | 2.7 | 
CCc1c(Cc2ccccc2)c(=O)oc2cc(OC(=O)N(C)C)ccc12 [Example 14-73] | 1.7 | 
CC(=O)Nc1cccc(Cc2c(C)c3c(F)cc(OC(=O)N(C)C)cc3oc2=O)c1 [Example 14-7] | 1 | 
CCc1c(Cc2ccncc2)c(=O)oc2cc(OC(=O)N(C)C)ccc12 [Example 14-80] | 2.4 | 
CCc1c(Cc2cccc(NC(C)=O)c2)c(=O)oc2cc(Oc3ncccn3)ccc12 [Example 20-54] | 6.7 | 
Cc1c(Cc2cccc(N)c2)c(=O)oc2cc(OC(=O)N(C)C)cc(F)c12 [Example 14-6] | 1.6 | 
